Test results as given in patent publication US20230002361A1, “2H-INDAZOLE DERIVATIVES AND THEIR USE IN THE TREATMENT OF DISEASE” (BIOGEN MA INC., priority 2019, published 2023).
Where a name gives a salt, the structure may show the parent alone. Read-outs that look alike come from different tables or passages of the source.

Experiments:
[1] = molecular target: T1, IRAK4 (Homo sapiens, UniProt Q9NWZ3); assay: IRAK4 MSD Biochemical Assay (1 mM ATP, 2 h); settings: room temperature
T1 construct: with 0.1 nM IRAK4, 1.6 μM of biotinylated peptide substrate and 10 μM ATP
T1 sequence (Q9NWZ3 1-460): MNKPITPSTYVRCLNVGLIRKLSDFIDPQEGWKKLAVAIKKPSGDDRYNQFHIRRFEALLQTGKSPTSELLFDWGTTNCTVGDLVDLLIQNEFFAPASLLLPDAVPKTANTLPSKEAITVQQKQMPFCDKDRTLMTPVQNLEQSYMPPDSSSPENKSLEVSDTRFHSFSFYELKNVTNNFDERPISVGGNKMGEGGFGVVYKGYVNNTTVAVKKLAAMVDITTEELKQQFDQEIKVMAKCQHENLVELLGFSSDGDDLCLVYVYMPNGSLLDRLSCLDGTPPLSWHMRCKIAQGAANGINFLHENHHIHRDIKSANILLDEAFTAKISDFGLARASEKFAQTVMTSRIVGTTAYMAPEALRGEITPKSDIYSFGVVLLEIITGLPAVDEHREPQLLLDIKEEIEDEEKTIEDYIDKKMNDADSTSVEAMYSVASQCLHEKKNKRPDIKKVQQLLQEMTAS
Procedure: The 2-hour 10 μM ATP Biochemical Assay employs a MesoScale Detection (MSD) format.
The activity is quenched with 11 μl of 70 mM EDTA, pH 8.
To detect the phosphorylated biotinylated peptide substrate, 30 μl of the quenched reaction mixture is added to equivalent wells of a 384 well streptavidin coated MesoScale plate (Meso Scale Discovery #L21SA-1). After a 1 hour incubation of the plate for 1 hour at room temperature with gentle mixing, the plate wells are washed 3 times with 50 mM Tris, pH 7.5, 150 mM NaCl, 0.02% Tween-20.
A 25 μl volume of 1:500 anti-P-Threonine Rabbit polyclonal Antibody plus 1:500 Goat-anti-Rabbit Sulfo Tag Antibody (Meso Scale Discovery R32AB-1) in 50 mM Tris, pH 7.5, 150 mM NaCl, 0.02% Tween-20 plus 2% BSA is then added to each well. After a 1-hour incubation of the plate for 1 hour at room temperature with gentle mixing, the plate wells are washed, 3 times with 50 mM Tris, pH 7.5, 150 mM NaCl, 0.02% Tween-20. A 40 μl volume of 2×MSD Read Buffer (Meso Scale Discovery R92TC-1) is added to each well, and the plate is read immediately in an MSD Plate Reader (Meso Scale Discovery).
The 2-hour 1 mM ATP IRAK4 Biochemical assay was performed as described above, but with […] IRAK4 and 1 mM ATP.

[2] = molecular target: T2, MDR1 (P-gp) (Homo sapiens, UniProt P08183); assay: MDR1-MDCK assay (efflux ratio); assay type: in vitro ADME; settings: human, MDCK-MDR1, 1 μM compound, 120 minutes incubation; read-out: MDR1-MDCK Efflux Ratio; (B-A/A-B)
T2 construct: host or cells: MDCK cells
Procedure: • The assay makes use of human MDR1 transfected MDCK cells (NIH cell line in-licensed from Absorption Systems) • The compounds are tested at 1 μM concentration prepared in transport buffer (Hank's balanced salt solution with HEPES) • MDR1-MDCK cell are cultured for 7 days in 96 well transwell insert plates (Corning). Insert plates are washed before the assay and TEER (Trans epithelial electric resistance) is measured. • These plates are loaded with test compound solution 85 μL for A-B transport and 260 μL for B-A transport in the respective donor compartment.
Mass balance=100×((Vr×Cr^final)+(Vd×Cd^final))/(Vd×CE) • Where: • dCr/dt is the cumulative concentration in the receiver compartment versus time in μM s^−1 • Vr is the volume of the receiver compartment in cm^3 • Vd is the volume of the donor compartment in cm^3 • A is the area of the insert (0.143 cm^2 for 96-well insert) • CE is the estimated experimental concentration (Time=0) of the dosing solution • Cr^final is the concentration of the receiver at the end of the incubation period • Cd^final is the concentration of the donor at the end of the incubation period.

[3] = read-out: IRAK4 MSD Biochemical Assay (1 mM ATP, 2 h) IC50

T2 sequence (P08183 whole entry): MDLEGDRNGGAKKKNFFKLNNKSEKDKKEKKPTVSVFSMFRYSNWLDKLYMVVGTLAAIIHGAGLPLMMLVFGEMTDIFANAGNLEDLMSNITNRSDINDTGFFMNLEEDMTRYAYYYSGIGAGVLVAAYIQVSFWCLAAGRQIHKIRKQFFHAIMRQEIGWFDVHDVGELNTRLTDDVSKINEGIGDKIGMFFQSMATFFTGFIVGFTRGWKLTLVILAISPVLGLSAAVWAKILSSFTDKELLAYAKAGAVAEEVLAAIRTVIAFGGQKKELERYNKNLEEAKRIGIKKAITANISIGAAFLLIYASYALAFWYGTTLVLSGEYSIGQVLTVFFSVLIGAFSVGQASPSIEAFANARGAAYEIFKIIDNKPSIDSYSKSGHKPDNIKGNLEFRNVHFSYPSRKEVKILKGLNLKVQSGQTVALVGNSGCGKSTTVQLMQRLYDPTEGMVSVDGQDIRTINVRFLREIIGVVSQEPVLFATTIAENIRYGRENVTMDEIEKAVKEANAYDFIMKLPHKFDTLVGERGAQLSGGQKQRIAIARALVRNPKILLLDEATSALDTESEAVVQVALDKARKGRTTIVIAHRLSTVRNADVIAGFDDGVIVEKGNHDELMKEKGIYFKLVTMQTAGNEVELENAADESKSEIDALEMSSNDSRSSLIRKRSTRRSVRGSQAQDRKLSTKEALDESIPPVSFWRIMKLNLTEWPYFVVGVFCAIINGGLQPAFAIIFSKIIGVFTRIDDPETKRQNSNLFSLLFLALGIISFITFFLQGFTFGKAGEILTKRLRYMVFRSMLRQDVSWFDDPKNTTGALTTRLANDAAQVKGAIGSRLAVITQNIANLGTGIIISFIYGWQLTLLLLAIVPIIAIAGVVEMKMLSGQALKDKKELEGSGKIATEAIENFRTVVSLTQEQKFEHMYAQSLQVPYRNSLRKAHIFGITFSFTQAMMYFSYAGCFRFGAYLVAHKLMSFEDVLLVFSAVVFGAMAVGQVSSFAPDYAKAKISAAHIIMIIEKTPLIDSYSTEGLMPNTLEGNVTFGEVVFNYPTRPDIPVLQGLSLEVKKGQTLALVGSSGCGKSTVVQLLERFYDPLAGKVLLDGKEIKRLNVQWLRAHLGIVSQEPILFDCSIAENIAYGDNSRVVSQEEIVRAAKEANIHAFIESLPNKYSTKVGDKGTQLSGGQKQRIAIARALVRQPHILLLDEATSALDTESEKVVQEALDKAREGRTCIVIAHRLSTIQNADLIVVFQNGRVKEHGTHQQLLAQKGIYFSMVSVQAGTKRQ

IC50 [1, 3] | efflux ratio at 120 min, 1 μM [2] | Compound | IC50 ([1]; IRAK4 MSD Biochemical Assay (1 mM ATP, 2 h) IC50 (nM))
6.2 nM | 0.6 | CC(C)Oc1cc2nn(C3COC3)cc2cc1C(=O)Nc1cccc(C(F)F)n1 [Example 30, N-(6-(difluoromethyl)pyridin-2-yl)-6-isopropoxy-2-(oxetan-3-yl)-2H-indazole-5-carboxamide] | 
1 nM | 14.2 | CC(C)Oc1cc2nn(CCC(C)(C)O)cc2cc1C(=O)Nc1cnn2cccnc12 [Example 34, 2-(3-Hydroxy-3-methylbutyl)-6-isopropoxy-N-(pyrazolo[1,5-a]pyrimidin-3-yl)-2H-indazole-5-carboxamide] | 
5 nM | 1.1 | COCCCn1cc2cc(C(=O)Nc3cnn4cccnc34)c(OC(C)C)cc2n1 [Example 35, 6-Isopropoxy-2-(3-methoxypropyl)-N-(pyrazolo[1,5-a]pyrimidin-3-yl)-2H-indazole-5-carboxamide] | 
0.5 nM | 2.2 | CC(C)Oc1nc2nn(C3CCCOC3)cc2cc1C(=O)Nc1cnn2cccnc12 (centres unmarked) [Example 36, 6-Isopropoxy-N-(pyrazolo[1,5-a]pyrimidin-3-yl)-2-(tetrahydro-2H-pyran-3-yl)-2H-pyrazolo[3,4-b]pyridine-5-carboxamide] | 
6.4 nM | 2.2 | CC(C)Oc1nc2nn(C3CCOC3)cc2cc1C(=O)Nc1cnn2cccnc12 (centres unmarked) [Example 37, 6-Isopropoxy-N-(pyrazolo[1,5-a]pyrimidin-3-yl)-2-(tetrahydrofuran-3-yl)-2H-pyrazolo[3,4-b]pyridine-5-carboxamide] | 
11.2 nM | 2.3 | CC(C)Oc1cc2nn(C3COC3)cc2cc1C(=O)Nc1cnn2cccnc12 [Example 38, 6-Isopropoxy-2-(oxetan-3-yl)-N-(pyrazolo[1,5-a]pyrimidin-3-yl)-2H-indazole-5-carboxamide] | 
1.8 nM | 3.1 | CC(C)Oc1cc2nn(CC3CCOC3)cc2cc1C(=O)Nc1cnn2cccnc12 (centres unmarked) [Example 39, 6-Isopropoxy-N-(pyrazolo[1,5-a]pyrimidin-3-yl)-2-((tetrahydrofuran-3-yl)methyl)-2H-indazole-5-carboxamide] | 
3.2 nM | 0.3 | CC(C)Oc1cc2nn(C)cc2cc1C(=O)Nc1cccc(C(F)F)n1 [Example 41, N-(6-(difluoromethyl)pyridin-2-yl)-6-isopropoxy-2-methyl-2H-indazole-5-carboxamide] | 
1.3 nM | 0.9 | CC(C)Oc1cc2nn(C3CCOCC3)cc2cc1C(=O)Nc1cccc2ccnn12 [Example 51, 6-Isopropoxy-N-(pyrazolo[1,5-a]pyridin-7-yl)-2-(tetrahydro-2H-pyran-4-yl)-2H-indazole-5-carboxamide] | 
0.8 nM | 1.1 | CC(C)Oc1cc2nn(C34CCC(C)(C3)OC4)cc2cc1C(=O)Nc1cccn(C)c1=O (centres unmarked) [Example 57, 6-Isopropoxy-N-(1-methyl-2-oxo-1,2-dihydropyridin-3-yl)-2-(1-methyl-2-oxabicyclo[2.2.1]heptan-4-yl)-2H-indazole-5-carboxamide] | 

The next lines start with the molecule.

Compound | IC50 [1, 3] | efflux ratio at 120 min, 1 μM [2] | IC50 ([1]; IRAK4 MSD Biochemical Assay (1 mM ATP, 2 h) IC50 (nM))
CC(C)Oc1cc2nn(CC34COC(C)(C3)C4)cc2cc1C(=O)Nc1cccc(C(F)F)n1.Cl [Example 27, N-(6-(difluoromethyl)pyridin-2-yl)-6-isopropoxy-2-((1-methyl-2-oxabicyclo[2.1.1]hexan-4-yl)methyl)-2H-indazole-5-carboxamide hydrochloride] | 5.4 nM | 1.3 | 
COCCn1cc2cc(C(=O)Nc3cccc(C(F)F)n3)c(OC(C)C)cc2n1.Cl [Example 28, N-(6-(difluoromethyl)pyridin-2-yl)-6-isopropoxy-2-(2-methoxyethyl)-2H-indazole-5-carboxamide hydrochloride] | 4.4 nM | 0.4 | 
COC(C)(C)CCn1cc2cc(C(=O)Nc3cccc(C(F)F)n3)c(OC(C)C)cc2n1.Cl [Example 29, N-(6-(difluoromethyl)pyridin-2-yl)-6-isopropoxy-2-(3-methoxy-3-methylbutyl)-2H-indazole-5-carboxamide hydrochloride] | 0.6 nM | 0.8 | 
CCOc1cc2nn(CCC(C)(C)O)cc2cc1C(=O)Nc1cccc(C(F)F)n1 [Example 31, N-(6-(difluoromethyl)pyridin-2-yl)-6-ethoxy-2-(3-hydroxy-3-methylbutyl)-2H-indazole-5-carboxamide] | 0.7 nM | 1.9 | 
CC(C)Oc1nc2nn(CCC(C)(C)O)cc2cc1C(=O)Nc1cccc(C(F)F)n1 [Example 32, N-(6-(difluoromethyl)pyridin-2-yl)-2-(3-hydroxy-3-methylbutyl)-6-isopropoxy-2H-pyrazolo[3,4-b]pyridine-5-carboxamide] | 0.4 nM | 3.4 | 
CC(C)Oc1cc2nn(CCC(C)(C)O)cc2cc1C(=O)Nc1ccn(C(F)F)n1 [Example 33, N-(1-(difluoromethyl)-1H-pyrazol-3-yl)-2-(3-hydroxy-3-methylbutyl)-6-isopropoxy-2H-indazole-5-carboxamide] | 4.3 nM | 8.6 | 
COc1ncccc1NC(=O)c1cc2cn(CCC(C)(C)O)nc2nc1OC(C)C [Example 40, 2-(3-Hydroxy-3-methylbutyl)-6-isopropoxy-N-(2-methoxypyridin-3-yl)-2H-pyrazolo[3,4-b]pyridine-5-carboxamide] | 0.7 nM | 5.7 | 
Cl.O=C(Nc1cccc(C(F)F)n1)c1cc2cn(C3CCOCC3)nc2cc1O[C@H]1C[C@H](C(F)F)C1 [Example 48, 6-((1R,3R)-3-(difluoromethyl)cyclobutoxy)-N-(6-(difluoromethyl)pyridin-2-yl)-2-(tetrahydro-2H-pyran-4-yl)-2H-indazole-5-carboxamide Hydrochloride] | 0.5 nM | 1.3 | 
Cl.O=C(Nc1cccc(C(F)F)n1)c1cc2cn(C3CCOCC3)nc2cc1OCC1CC(F)(F)C1 [Example 49, 6-((3,3-Difluorocyclobutyl)methoxy)-N-(6-(difluoromethyl)pyridin-2-yl)-2-(tetrahydro-2H-pyran-4-yl)-2H-indazole-5-carboxamide Hydrochloride] | 2 nM | 1.4 | 
CO[C@H]1C[C@H](Oc2cc3nn(C4CCOCC4)cc3cc2C(=O)Nc2cccc(C(F)F)n2)C1.Cl [Example 50, N-(6-(difluoromethyl)pyridin-2-yl)-6-((1R,3R)-3-methoxycyclobutoxy)-2-(tetrahydro-2H-pyran-4-yl)-2H-indazole-5-carboxamide Hydrochloride] | 0.2 nM | 1.4 | 
CC(C)Oc1nc2nn(CC3CCOC3)cc2cc1C(=O)Nc1cnn2cccnc12 (centres unmarked) [Example 54, 6-Isopropoxy-N-(pyrazolo[1,5-a]pyrimidin-3-yl)-2-((tetrahydrofuran-3-yl)methyl)-2H-pyrazolo[3,4-b]pyridine-5-carboxamide] |  | 3.6 | 1.3 nM
Cc1cnc2c(NC(=O)c3cc4cn(C56COC(C)(C5)C6)nc4cc3OC3CCC3)cnn2c1 [Example 56, 6-Cyclobutoxy-2-(1-methyl-2-oxabicyclo[2.1.1]hexan-4-yl)-N-(6-methylpyrazolo[1,5-a]pyrimidin-3-yl)-2H-indazole-5-carboxamide Trifluoroacetate] | 0.5 nM | 2 | 
